# Experimental data: publication PMC9090415, “Discovery of small molecule inhibitors of Plasmodium falciparum apicoplast DNA polymerase” (Journal of Enzyme Inhibition and Medicinal Chemistry, 2022)
# Biological target: P. falciparum apicoplast DNA polymerase (Pf-apPOL) (Plasmodium falciparum, UniProt Q8ILY1)
# Assay: Fluorescence-based high-throughput DNA polymerase assay (molecular beacon), primary screen and dose-response;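 as to % inhibition ApPOL 90': test concentration in µM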;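 as to % inhibition apPOL 180': test concentration in µM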
# Assay type: biochemical
# Procedure, shortened: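 Single-point screening used 10 µM compound with 20 nM polymerase, 20 nM hairpin substrate and 6 µM dNTPs for 90 min at 25 °C. Confirmatory titrations (2.5–80 µM) followed fluorescence at three times, and IC50 was derived from a fit including a cooperativity term n.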
# [1] = supplemental file 2, sheet IC50 nontoxic compounds; Pf-apPOL
# P. falciparum apicoplast DNA polymerase (Pf-apPOL), sequence (Q8ILY1 entry or part of it): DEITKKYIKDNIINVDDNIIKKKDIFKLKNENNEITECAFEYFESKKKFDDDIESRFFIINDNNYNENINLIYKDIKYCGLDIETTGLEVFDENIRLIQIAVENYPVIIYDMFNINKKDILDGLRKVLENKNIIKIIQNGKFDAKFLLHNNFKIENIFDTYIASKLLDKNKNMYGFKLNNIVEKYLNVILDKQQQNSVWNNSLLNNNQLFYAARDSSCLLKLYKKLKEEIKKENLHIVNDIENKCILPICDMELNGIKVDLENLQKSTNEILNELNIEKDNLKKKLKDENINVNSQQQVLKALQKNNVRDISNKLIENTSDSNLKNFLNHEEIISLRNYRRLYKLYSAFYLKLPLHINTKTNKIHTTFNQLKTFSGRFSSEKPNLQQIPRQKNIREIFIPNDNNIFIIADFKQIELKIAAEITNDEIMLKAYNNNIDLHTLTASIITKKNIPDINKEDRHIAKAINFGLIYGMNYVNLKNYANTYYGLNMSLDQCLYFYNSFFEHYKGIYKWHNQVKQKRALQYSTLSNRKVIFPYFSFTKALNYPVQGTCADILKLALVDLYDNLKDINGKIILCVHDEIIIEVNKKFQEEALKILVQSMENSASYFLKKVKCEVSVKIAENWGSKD
compound,measurement,setting,value
COc1ccc(C(=O)Nc2cccc(-c3nc4ncccc4o3)c2)cc1[N+](=O)[O-] [KU0063313],DNA Pol,"186 hits, value of the hit list (primary screen); unit not given; 90 min, 10 µM",31
same,% inhibition Apo pol 10',DRC-1; 10'; concentration 2.5,4.335%
same,% inhibition Apo pol 10',DRC-1; 10'; concentration 5,2.852%
same,% inhibition Apo pol 10',DRC-1; 10'; concentration 10,35.1619%
same,% inhibition Apo pol 10',DRC-1; 10'; concentration 20,59.4699%
same,% inhibition Apo pol 10',DRC-1; 10'; concentration 40,4.461%
same,% inhibition Apo pol 10',DRC-1; 10'; concentration 80,70.0671%
same,% inhibition Apol 90',DRC-1; 90'; concentration 2.5,2.478%
same,% inhibition Apol 90',DRC-1; 90'; concentration 5,4.0361%
same,% inhibition Apol 90',DRC-1; 90'; concentration 10,26.4412%
same,% inhibition Apol 90',DRC-1; 90'; concentration 20,41.4228%
same,% inhibition Apol 90',DRC-1; 90'; concentration 40,2.829%
same,% inhibition Apol 90',DRC-1; 90'; concentration 80,43.7849%
same,% inhibition apPOL 180',DRC-1; 180'; concentration 2.5,-1.663%
same,% inhibition apPOL 180',DRC-1; 180'; concentration 5,2.317%
same,% inhibition apPOL 180',DRC-1; 180'; concentration 10,20.5277%
same,% inhibition apPOL 180',DRC-1; 180'; concentration 20,37.6573%
same,% inhibition apPOL 180',DRC-1; 180'; concentration 40,6.705%
same,% inhibition apPOL 180',DRC-1; 180'; concentration 80,38.9716%
same,% inhibition Apo pol 5',"DRC-2, 5', concentration 2.5",0.145%
same,% inhibition Apo pol 5',"DRC-2, 5', concentration 5",8%
same,% inhibition Apo pol 5',"DRC-2, 5', concentration 10",16%
same,% inhibition Apo pol 5',"DRC-2, 5', concentration 20",4%
same,% inhibition Apo pol 5',"DRC-2, 5', concentration 40",29%
same,% inhibition Apo pol 5',"DRC-2, 5', concentration 80",15%
same,% inhibition Apol 40',"DRC-2, 40', concentration 2.5",0.929%
same,% inhibition Apol 40',"DRC-2, 40', concentration 5",10%
same,% inhibition Apol 40',"DRC-2, 40', concentration 10",18%
same,% inhibition Apol 40',"DRC-2, 40', concentration 20",1.88%
same,% inhibition Apol 40',"DRC-2, 40', concentration 40",61%
same,% inhibition Apol 40',"DRC-2, 40', concentration 80",45%
same,% inhibition ApPOL 90',"DRC-2, 90', concentration 2.5",0.838%
same,% inhibition ApPOL 90',"DRC-2, 90', concentration 5",10%
same,% inhibition ApPOL 90',"DRC-2, 90', concentration 10",15%
same,% inhibition ApPOL 90',"DRC-2, 90', concentration 20",-0.691%
same,% inhibition ApPOL 90',"DRC-2, 90', concentration 40",68%
same,% inhibition ApPOL 90',"DRC-2, 90', concentration 80",58%
same,% inhibition apPOL 180',"DRC-2, 180', concentration 2.5",-5%
same,% inhibition apPOL 180',"DRC-2, 180', concentration 5",2.55%
same,% inhibition apPOL 180',"DRC-2, 180', concentration 10",8%
same,% inhibition apPOL 180',"DRC-2, 180', concentration 20",-8%
same,% inhibition apPOL 180',"DRC-2, 180', concentration 40",73%
same,% inhibition apPOL 180',"DRC-2, 180', concentration 80",62%
same,% inhibition Apo pol 5',DRC-2; 5'; concentration 5,8%
same,% inhibition Apo pol 5',DRC-2; 5'; concentration 80,15%
same,% inhibition Apol 40',DRC-2; 40'; concentration 5,10%
same,% inhibition ApPOL 90',DRC-2; 90'; concentration 5,10%
same,% inhibition ApPOL 90',DRC-2; 90'; concentration 10,15%
same,% inhibition apPOL 180',DRC-2; 180'; concentration 10,8%
same,DNA Pol,"primary screen value, 'DNA Pol' only; 90 min, 10 µM",31
O=C(Cc1cccs1)N1CCN(c2nc(CN3CCOCC3)cs2)CC1 [Molecule 35],IC50,[1],11.2 µM
CCCCCc1c2c(cc(O)c1C(=O)O)OC(=O)c1c(cc(OC)cc1C(=O)CCCC)O2 [Molecule 24],IC50,[1],9.31 µM
COc1cc(/C=C2\S/C(=N/C(C)=O)NC2=O)cc(Br)c1OCC(=O)O [KU0057841],DNA Pol,"'DNA Pol'; screening value, unit not given; 90 min, 10 µM",27
same,% inhibition Apo pol 10',DRC-1; 10'; concentration 2.5,4.866%
same,% inhibition Apo pol 10',DRC-1; 10'; concentration 5,4.738%
same,% inhibition Apo pol 10',DRC-1; 10'; concentration 10,17.12%
same,% inhibition Apo pol 10',DRC-1; 10'; concentration 20,35.9073%
same,% inhibition Apo pol 10',DRC-1; 10'; concentration 40,63.4189%
same,% inhibition Apo pol 10',DRC-1; 10'; concentration 80,83.5237%
same,% inhibition Apol 90',DRC-1; 90'; concentration 2.5,3.601%
same,% inhibition Apol 90',DRC-1; 90'; concentration 5,-2.326%
same,% inhibition Apol 90',DRC-1; 90'; concentration 10,5.395%
same,% inhibition Apol 90',DRC-1; 90'; concentration 20,16.7076%
same,% inhibition Apol 90',DRC-1; 90'; concentration 40,36.5505%
same,% inhibition Apol 90',DRC-1; 90'; concentration 80,62.7524%
same,% inhibition apPOL 180',DRC-1; 180'; concentration 2.5,1.284%
same,% inhibition apPOL 180',DRC-1; 180'; concentration 5,-7.5244%
same,% inhibition apPOL 180',DRC-1; 180'; concentration 10,-2.004%
same,% inhibition apPOL 180',DRC-1; 180'; concentration 20,5.338%
same,% inhibition apPOL 180',DRC-1; 180'; concentration 40,19.6206%
same,% inhibition apPOL 180',DRC-1; 180'; concentration 80,44.2464%
same,% inhibition Apo pol 5',"DRC-2, 5', concentration 2.5",2.71%
same,% inhibition Apo pol 5',"DRC-2, 5', concentration 5",4.4%
same,% inhibition Apo pol 5',"DRC-2, 5', concentration 10",17%
same,% inhibition Apo pol 5',"DRC-2, 5', concentration 20",29%
same,% inhibition Apo pol 5',"DRC-2, 5', concentration 40",52%
same,% inhibition Apo pol 5',"DRC-2, 5', concentration 80",60%
same,% inhibition Apol 40',"DRC-2, 40', concentration 2.5",1.51%
same,% inhibition Apol 40',"DRC-2, 40', concentration 5",3.29%
same,% inhibition Apol 40',"DRC-2, 40', concentration 10",13%
same,% inhibition Apol 40',"DRC-2, 40', concentration 20",24%
same,% inhibition Apol 40',"DRC-2, 40', concentration 40",47%
same,% inhibition Apol 40',"DRC-2, 40', concentration 80",64%
same,% inhibition ApPOL 90',"DRC-2, 90', concentration 2.5",1.23%
same,% inhibition ApPOL 90',"DRC-2, 90', concentration 5",2.28%
same,% inhibition ApPOL 90',"DRC-2, 90', concentration 10",9.51%
same,% inhibition ApPOL 90',"DRC-2, 90', concentration 20",20%
same,% inhibition ApPOL 90',"DRC-2, 90', concentration 40",41%
same,% inhibition ApPOL 90',"DRC-2, 90', concentration 80",60%
same,% inhibition apPOL 180',"DRC-2, 180', concentration 2.5",1.62%
same,% inhibition apPOL 180',"DRC-2, 180', concentration 5",-1.41%
same,% inhibition apPOL 180',"DRC-2, 180', concentration 10",4%
same,% inhibition apPOL 180',"DRC-2, 180', concentration 20",14%
same,% inhibition apPOL 180',"DRC-2, 180', concentration 40",28%
same,% inhibition apPOL 180',"DRC-2, 180', concentration 80",49%
same,% inhibition Apo pol 5',conc 80 (unit not given); 5'; DRC-2,60%
same,% inhibition ApPOL 90',conc 80 (unit not given); 90'; DRC-2,60%
same,DNA Pol,"primary screen hit value, DNA Pol (186 hits); 90 min, 10 µM",27
COC(=O)c1sc(-c2ccc(C(C)(C)C)cc2)cc1NC(=O)CCC(=O)O [Molecule 87],IC50,[1],8.86 µM
COc1cc(/C=C2\C(=O)N(c3ccc(C(=O)O)cc3)N=C2C(F)(F)F)ccc1OCC(C)C [KU0069072],% inhibition Apo pol 10',DRC-1; concentration 2.5; 10',27.3475%
same,% inhibition Apol 90',DRC-1; concentration 2.5; 90',15.3217%
same,% inhibition apPOL 180',DRC-1; concentration 2.5; 180',6.275%
same,% inhibition Apo pol 10',DRC-1; concentration 5; 10',10.3149%
same,% inhibition Apol 90',DRC-1; concentration 5; 90',-0.5045%
same,% inhibition apPOL 180',DRC-1; concentration 5; 180',-5.844%
same,% inhibition Apo pol 10',DRC-1; concentration 10; 10',46.067%
same,% inhibition Apol 90',DRC-1; concentration 10; 90',33.8794%
same,% inhibition apPOL 180',DRC-1; concentration 10; 180',21.4839%
same,% inhibition Apo pol 10',DRC-1; concentration 20; 10',70.4954%
same,% inhibition Apol 90',DRC-1; concentration 20; 90',63.3531%
same,% inhibition apPOL 180',DRC-1; concentration 20; 180',50.844%
same,% inhibition Apo pol 10',DRC-1; concentration 40; 10',88.0061%
same,% inhibition Apol 90',DRC-1; concentration 40; 90',82.4517%
same,% inhibition apPOL 180',DRC-1; concentration 40; 180',75.9132%
same,% inhibition Apo pol 10',DRC-1; concentration 80 (unit not given); 10',95.6412%
same,% inhibition Apol 90',DRC-1; concentration 80; 90',93.9861%
same,% inhibition apPOL 180',DRC-1; concentration 80; 180',92.8608%
same,% inhibition Apo pol 5',DRC-2; concentration 2.5; 5',4%
same,% inhibition Apol 40',DRC-2; concentration 2.5; 40',4.27%
same,% inhibition ApPOL 90',DRC-2; concentration 2.5; 90',2.38%
same,% inhibition apPOL 180',DRC-2; concentration 2.5; 180',0.394%
same,% inhibition Apo pol 5',DRC-2; concentration 5; 5',-3.52%
same,% inhibition Apol 40',DRC-2; concentration 5; 40',-5%
same,% inhibition ApPOL 90',DRC-2; concentration 5; 90',-7%
same,% inhibition apPOL 180',DRC-2; concentration 5; 180',-9%
same,% inhibition Apo pol 5',DRC-2; concentration 10; 5',24%
same,% inhibition Apol 40',DRC-2; concentration 10; 40',28%
same,% inhibition ApPOL 90',DRC-2; concentration 10; 90',25%
same,% inhibition apPOL 180',DRC-2; concentration 10; 180',15%
same,% inhibition Apo pol 5',DRC-2; concentration 20; 5',44%
same,% inhibition Apol 40',DRC-2; concentration 20; 40',51%
same,% inhibition ApPOL 90',DRC-2; concentration 20; 90',50%
same,% inhibition apPOL 180',DRC-2; concentration 20; 180',40%
same,% inhibition Apo pol 5',DRC-2; concentration 40; 5',59%
same,% inhibition Apol 40',DRC-2; concentration 40; 40',70%
same,% inhibition ApPOL 90',DRC-2; concentration 40; 90',71%
same,% inhibition apPOL 180',DRC-2; concentration 40; 180',66%
same,% inhibition Apo pol 5',DRC-2; concentration 80; 5',65%
same,% inhibition Apol 40',DRC-2; concentration 80; 40',78%
same,% inhibition ApPOL 90',DRC-2; concentration 80; 90',80%
same,% inhibition apPOL 180',DRC-2; concentration 80; 180',82%
same,DNA Pol,"primary screen value of the 186 hits; unit not given; 90 min, 10 µM",76
same,DNA Pol,"primary screen value; head prints only 'DNA Pol'; 90 min, 10 µM",76
